From US11919912B2, “Modulators of methyl modifying enzymes, compositions and uses thereof” (Constellation Pharmaceuticals, Inc., priority 2018, dated 2024)

Legend:
PRC2 containing wt EZH2 = molecular target: T1, PRC2 containing wt EZH2 (Homo sapiens, UniProt Q15910); assay: EZH2 biochemical assay (IC50), incorporation of 3H-SAM into a biotinylated H3 peptide; settings: 30 pM PRC2 (wt EZH2, pentameric complex), pre-incubated 3-5 h, reaction 18-22 h
T1 construct: made in house
Protocol: EZH2 biochemical assay (IC50): Compound potencies were assessed through incorporation of ^3H-SAM into a biotinylated H3 peptide. […] Quenching was accomplished by addition of 20 μl of STOP solution (50 mM Tris (pH 8.5), 200 mM EDTA, 2 mM SAH). 35 μl of the quenched solution was transferred to streptavidin coated FlashPlates (PerkinElmer), incubated 1-2 h, washed, and read in a TopCount Reader (PerkinElmer).

H3K27me3 in Hela cells = assay: H3K27me3 Alpha Hela Assay (AlphaLISA); type: cell-based; settings: Homo sapiens, 72 hrs
Protocol: H3K27me3 Alpha Hela Assay (AlphaLISA). Ten different doses of each test compound (in a series of 3-fold dilutions) were plated in duplicate 384-well tissue culture treated plates (Catalog #6007680; Perkin Elmer, Waltham, MA). Hela cells grown in culture were trypsinized and counted using a Countess® cell counter (Catalog #C10281; Life Technologies, Grand Island, NY). Cell were diluted to 67,000 cells per mL in10% DMEM (Catalog #10569-010 Life Technologies, Grand Island, NY) and 15 μL (1,000 cells) were plated into each well using the Biotek MicroFlo™ Select Dispenser (BioTek Instruments, Inc. Vermont, USA),) of the 384-well plate. Plates were incubated at 37° C./5% CO2 for 72 hrs. One of the duplicate plates was processed for HeLa assay and the other for viability. […] The plates were then read using an EnVision-Alpha Reader (model #2104 Perkin Elmer; Waltham, MA).
Cell viability was assayed by adding 15 μL of Cell Titer Glo ((Catalog #G9241 Promega Madison, WI) to each well with cells with media. The plates were incubated at RT for 15-20 minutes on a plate shaker at low speed. The plates were then read using an EnVision-Alpha Reader (model #2104 Perkin Elmer; Waltham, MA).

Karpas-422 cell lines = assay: Karpas-422 viability assay (Cell Titer-Glo); type: cell-based; settings: Homo sapiens, Cell Titer-Glo on Day 8, cells split every 4 days
Protocol: Karpas-422 cell lines were obtained from DSMZ (Braunschweig, Germany) and were grown in RPMI-1640 media. All media contained 10% fetal bovine serum (FBS) and 1% penicillin/streptomycin (Invitrogen). 20K cells per well were plated onto 96 well compound coated plates. Cells were split and seeded at original plating density (based on the DMSO well counts) every 4 days into plates containing fresh EZH2 inhibitors. Relative cell numbers were assessed by Cell Titer-Glo luminescent cell viability assay (Promega) on Day 8. GraphPad Prism 5 was used for curve fitting and GI50 values were reported.

T1 sequence (Q15910 whole entry): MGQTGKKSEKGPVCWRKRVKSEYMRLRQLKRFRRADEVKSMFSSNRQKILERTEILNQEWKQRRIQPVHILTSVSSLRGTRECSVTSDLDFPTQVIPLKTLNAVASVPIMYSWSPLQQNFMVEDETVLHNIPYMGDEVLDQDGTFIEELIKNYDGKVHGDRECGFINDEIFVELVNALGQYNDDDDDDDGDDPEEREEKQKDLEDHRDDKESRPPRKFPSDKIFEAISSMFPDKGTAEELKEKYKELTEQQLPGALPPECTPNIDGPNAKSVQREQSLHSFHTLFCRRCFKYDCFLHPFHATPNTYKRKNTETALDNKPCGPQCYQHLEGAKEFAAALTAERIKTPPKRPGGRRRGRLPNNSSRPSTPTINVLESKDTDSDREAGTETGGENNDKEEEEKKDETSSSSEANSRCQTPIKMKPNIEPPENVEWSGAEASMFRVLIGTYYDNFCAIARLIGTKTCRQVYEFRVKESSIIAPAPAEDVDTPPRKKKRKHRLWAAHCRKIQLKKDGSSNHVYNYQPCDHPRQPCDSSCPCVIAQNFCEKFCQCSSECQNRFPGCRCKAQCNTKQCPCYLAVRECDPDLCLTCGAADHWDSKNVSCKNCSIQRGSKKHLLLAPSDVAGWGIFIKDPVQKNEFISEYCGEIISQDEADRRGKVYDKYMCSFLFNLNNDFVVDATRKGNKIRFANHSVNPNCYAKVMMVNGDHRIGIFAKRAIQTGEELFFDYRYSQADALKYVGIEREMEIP
T1 sequence (O75530 whole entry partner): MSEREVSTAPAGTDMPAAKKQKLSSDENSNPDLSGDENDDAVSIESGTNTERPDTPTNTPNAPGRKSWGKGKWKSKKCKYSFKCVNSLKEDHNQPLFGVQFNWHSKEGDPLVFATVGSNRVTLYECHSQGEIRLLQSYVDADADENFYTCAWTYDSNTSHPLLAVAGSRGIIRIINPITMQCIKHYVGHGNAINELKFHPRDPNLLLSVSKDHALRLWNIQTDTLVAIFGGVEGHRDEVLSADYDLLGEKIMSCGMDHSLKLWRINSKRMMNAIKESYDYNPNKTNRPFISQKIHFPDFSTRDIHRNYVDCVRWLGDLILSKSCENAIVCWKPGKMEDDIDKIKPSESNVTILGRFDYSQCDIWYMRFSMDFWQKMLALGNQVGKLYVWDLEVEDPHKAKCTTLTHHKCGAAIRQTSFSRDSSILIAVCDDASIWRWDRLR
T1 sequence (Q15022 whole entry partner): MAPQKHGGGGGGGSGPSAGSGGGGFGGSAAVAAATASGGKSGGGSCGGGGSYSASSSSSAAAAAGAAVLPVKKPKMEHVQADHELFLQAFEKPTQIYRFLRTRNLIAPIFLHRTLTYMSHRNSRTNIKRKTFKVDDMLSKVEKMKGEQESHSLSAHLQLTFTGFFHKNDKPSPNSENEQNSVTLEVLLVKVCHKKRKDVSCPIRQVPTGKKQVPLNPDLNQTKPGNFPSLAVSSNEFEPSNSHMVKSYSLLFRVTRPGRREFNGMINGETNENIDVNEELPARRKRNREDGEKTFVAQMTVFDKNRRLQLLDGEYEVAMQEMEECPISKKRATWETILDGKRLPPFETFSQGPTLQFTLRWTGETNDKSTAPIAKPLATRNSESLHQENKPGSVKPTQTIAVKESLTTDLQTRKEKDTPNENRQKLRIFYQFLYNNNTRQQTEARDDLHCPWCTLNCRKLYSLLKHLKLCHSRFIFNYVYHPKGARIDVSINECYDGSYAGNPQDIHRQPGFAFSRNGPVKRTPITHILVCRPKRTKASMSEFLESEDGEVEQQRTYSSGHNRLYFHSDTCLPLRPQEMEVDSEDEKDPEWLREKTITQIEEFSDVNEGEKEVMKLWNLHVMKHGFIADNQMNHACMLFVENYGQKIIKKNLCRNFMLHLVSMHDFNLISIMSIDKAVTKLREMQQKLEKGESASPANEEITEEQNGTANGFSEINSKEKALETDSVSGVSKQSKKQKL
T1 sequence (Q09028 whole entry partner): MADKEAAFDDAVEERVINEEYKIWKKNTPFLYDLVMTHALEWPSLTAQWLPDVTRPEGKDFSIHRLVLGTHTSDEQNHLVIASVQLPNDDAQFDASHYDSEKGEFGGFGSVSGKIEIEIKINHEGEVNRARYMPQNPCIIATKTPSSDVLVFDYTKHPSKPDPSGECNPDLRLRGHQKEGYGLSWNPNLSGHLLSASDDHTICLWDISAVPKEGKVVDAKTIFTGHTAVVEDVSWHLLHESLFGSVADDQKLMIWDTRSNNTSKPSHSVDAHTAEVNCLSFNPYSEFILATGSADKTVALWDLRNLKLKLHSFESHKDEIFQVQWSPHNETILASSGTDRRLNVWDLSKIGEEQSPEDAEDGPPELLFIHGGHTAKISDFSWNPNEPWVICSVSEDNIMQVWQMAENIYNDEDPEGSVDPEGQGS
T1 sequence (Q6ZN18 whole entry partner): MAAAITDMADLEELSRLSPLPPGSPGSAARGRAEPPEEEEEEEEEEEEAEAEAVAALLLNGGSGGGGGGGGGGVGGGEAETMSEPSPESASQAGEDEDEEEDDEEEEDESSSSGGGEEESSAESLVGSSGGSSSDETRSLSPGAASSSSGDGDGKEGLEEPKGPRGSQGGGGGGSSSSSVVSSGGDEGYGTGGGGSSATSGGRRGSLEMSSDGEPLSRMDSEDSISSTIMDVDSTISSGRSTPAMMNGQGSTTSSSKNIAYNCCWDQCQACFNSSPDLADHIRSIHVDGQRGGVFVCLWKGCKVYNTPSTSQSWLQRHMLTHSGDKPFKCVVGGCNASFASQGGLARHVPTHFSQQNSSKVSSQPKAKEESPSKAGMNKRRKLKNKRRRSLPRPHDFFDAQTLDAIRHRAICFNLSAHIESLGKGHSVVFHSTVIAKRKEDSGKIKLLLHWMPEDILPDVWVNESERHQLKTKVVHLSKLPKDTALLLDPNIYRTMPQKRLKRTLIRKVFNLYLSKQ

Row | IC50 (PRC2 containing wt EZH2) | EC50 (H3K27me3 in Hela cells) | GI50 (Karpas-422 cell lines) | Compound
1 | 0.061 to 0.073 nM | – | – | CSc1cc(C)[nH]c(=O)c1Cn1ccc2c(Cl)c3c(c(C)c2c1=O)OC(C)([C@H]1CC[C@H](N(C)C)CC1)O3 (mixture of isomers) [Example 2, 9-Chloro-2-(Trans-4-(Dimethylamino)Cyclohexyl)-2,4-Dimethyl-6-((6-Methyl-4-(Methylthio)-2-Oxo-1,2-Dihydropyridin-3-Yl)Methyl)-[1,3]Dioxolo[4,5-g]Isoquinolin-]
2 | – | 0.849 to 1.13 nM | 5.7 nM | CSc1cc(C)[nH]c(=O)c1CN1CCc2c(Cl)c3c(c(C)c2C1=O)OC(C)([C@H]1CC[C@H](N(C)C)CC1)O3 (single isomer, unassigned) [Example 1, Peak 1, 9-Chloro-2-(Trans-4-(Dimethylamino)Cyclohexyl)-2,4-Dimethyl-6-((6-Methyl-4-(Methylthio)-2-Oxo-1,2-Dihydropyridin-3-Yl)Methyl)-7,8-Dihydro-[1,3]Dioxolo[4,5-g]Isoquinolin-5(6H)-One]
